This is an account of results in patent US7141546B1, “CRFR2 selective ligands” (priority 2001, dated 2006).

The target of experiment [1] is T1, CRFR1 (Homo sapiens, UniProt P34998).
T1 construct: expressed in transfected cells
T1 sequence (P34998 24-415): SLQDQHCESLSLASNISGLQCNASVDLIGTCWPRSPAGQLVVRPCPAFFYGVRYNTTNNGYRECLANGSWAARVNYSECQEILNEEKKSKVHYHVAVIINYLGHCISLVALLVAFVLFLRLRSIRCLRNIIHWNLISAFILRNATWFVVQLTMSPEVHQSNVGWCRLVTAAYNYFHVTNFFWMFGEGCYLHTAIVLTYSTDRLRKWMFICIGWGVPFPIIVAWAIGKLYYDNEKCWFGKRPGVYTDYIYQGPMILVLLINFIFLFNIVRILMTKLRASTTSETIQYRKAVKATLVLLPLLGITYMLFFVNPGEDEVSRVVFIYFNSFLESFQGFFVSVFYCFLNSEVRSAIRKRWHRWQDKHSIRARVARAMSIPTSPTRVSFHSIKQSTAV
Put plainly: Competitive displacement binding assay, cloned hCRFR1 expressed in CHO cells. The text has this: A candidate CRFR2 ligand is also easily evaluated in a binding assay using known CRF receptors, such as that described in Perrin, M., et al., Endocrinology, 118, 1171–1179 (1986). CRF receptors and the details of binding assays are discussed later in this specification. […] One such representative binding assay utilizing CRF-R1 receptor is described in Chen, et al., P.N.A.S., 90, 8967–8971 (October 1993).
(§1) CRF receptors have now been cloned and are disclosed in the aforementioned Chen et al. article, in Perrin, M., et al., P.N.A.S, 92, 2969–2973 (March 1995), and in Lovenberg, T., et al., P.N.A.S., 92, 836–840 (January 1995). Binding affinity is a term used to refer to the strength of interaction between ligand and receptor. […] Ki (inhibitory binding affinity constant) is determined using a “standard” or “tracer” radioactive ligand and thus measures the displacement of the tracer from the receptor or binding protein; it is most properly expressed with reference to such tracer. However, so long as these assays are carefully performed under specific conditions with relatively low concentrations of receptor or the like, the calculated Ki will be substantially the same as its dissociation constant KD. […] It is particularly efficient to test for Ki because only a single tracer need be labelled, e.g. radioiodinated. […] Those reported hereinafter are derived using radioactively labeled [Tyr Glu^1, Nle^17]-Svg as a radioligand.
(§2) Binding assays with cells expressing human CRFR1 are carried out as described in the Chen et al. P.N.A.S., supra. The affinities of test peptides for CRFR1 and CRFR2b stably expressed in CHO cells were determined by competitive displacement of ^125I-(Nle^21, Tyr^32) ovine CRF (for CRFR1) or of [^125I-Tyr^o-]Ucn (for CRFR2b) as described.

Experiment [2] deals with T1, CRFR1. Kind of experiment: cAMP accumulation in CHO cells stably transfected with CRFR1 and treated with CRF. The experiment is classed as cell-based.
Source text: (§3) In addition to inhibiting CRF receptor binding, a candidate's CRF receptor antagonist activity may be established by the ability of the compound to antagonize an activity associated with CRF. For example, CRF is known to stimulate various biochemical processes, including adenylate cyclase activity. Therefore, compounds may be evaluated as CRF antagonists by their ability to antagonize CRF-stimulated adenylate cyclase activity by, for example, measuring cAMP levels. The inhibition of CRF-stimulated adenylate cyclase activity, determined by the assay described by G. Battaglia et al., Synapse 1:572 (1987), provides an assay for determining a compound's ability to antagonize CRF activity. Accordingly, CRF receptor antagonist activity may be determined by assay techniques which generally include an initial binding assay followed by such a cAMP screening protocol.
as §2
On the technique in general: cAMP levels reflect the balance of adenylyl cyclase and phosphodiesterase activity.

The target in another experiment is T2, human CRFR2b (Homo sapiens, UniProt Q13324).
T2 construct: expressed in transfected cells
T2 sequence (Q13324 1-438 isoform Q13324-2): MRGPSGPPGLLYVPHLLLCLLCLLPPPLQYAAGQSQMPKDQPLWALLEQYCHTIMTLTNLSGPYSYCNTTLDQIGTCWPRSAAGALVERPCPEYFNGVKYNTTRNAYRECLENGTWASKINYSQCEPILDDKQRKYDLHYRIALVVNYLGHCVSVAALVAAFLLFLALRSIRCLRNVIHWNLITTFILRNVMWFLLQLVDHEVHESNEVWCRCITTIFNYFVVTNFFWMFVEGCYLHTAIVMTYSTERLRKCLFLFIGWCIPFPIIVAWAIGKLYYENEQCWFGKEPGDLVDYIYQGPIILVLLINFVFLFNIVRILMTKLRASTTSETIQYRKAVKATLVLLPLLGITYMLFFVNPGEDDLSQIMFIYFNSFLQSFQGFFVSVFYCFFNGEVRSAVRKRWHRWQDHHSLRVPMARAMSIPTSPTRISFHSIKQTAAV
Kind of experiment: Competitive displacement binding assay, stably transfected CHO cells expressing human CRFR2b. The conditions noted are these: for binding selectivity, CRFR2 versus CRFR1: in words, binding to CRFR2 compared with CRFR1. As to the method:
as §1, §2

For another experiment, the target named is T3, CRFR2 (Homo sapiens, UniProt Q13324).
T3 construct: expressed in transfected cells
T3 sequence (Q13324 1-438 isoform Q13324-2): T2 sequence (Q13324 1-438 isoform Q13324-2)
Put plainly: cAMP accumulation in CHO cells stably transfected with CRFR2 and treated with CRF. The conditions noted are these: for antagonism of CRF activity with respect to CRFR2 (cAMP accumulation): CHO cells stably transfected with CRFR2, treated with CRF. The experiment is classed as cell-based.
Source text: as §3, with “protocol. […]” for “protocol.”

Like-named read-outs stand apart in the source and are kept apart here. Bridge positions count the residues as written; N and C are the ends. Square brackets hold non-standard residues; d marks the D form. Peptide text beside a SMILES is read from it. αMeL = CC(C)C[C@](C)(N)C(=O)O; Nle = CCCC[C@H](N)C(=O)O

Take `CCCC[C@H](NC(=O)[C@H](CCCCN)NC(=O)[C@H](CCCNC(=N)N)NC(=O)[C@H](CC(C)C)NC(=O)[C@](C)(CC(C)C)NC(=O)[C@H](Cc1c[nH]cn1)NC(=O)[C@@H](Cc1ccccc1)NC(=O)[C@H](CO)NC(=O)[C@H](CC(C)C)NC(=O)[C@H](CC(=O)O)NC(C)=O)C(=O)N[C@H](C(=O)N[C@@H](CCC(=O)O)C(=O)N[C@H](C(=O)N[C@@H](CCC(=O)O)C(=O)N[C@@H](CCCCN)C(=O)N[C@@H](CCC(N)=O)C(=O)N[C@@H](CCC(=O)O)C(=O)N[C@@H](CCCCN)C(=O)N[C@@H](CCC(=O)O)C(=O)N[C@@H](CCCCN)C(=O)N[C@@H](CCC(N)=O)C(=O)N[C@@H](CCC(N)=O)C(=O)N[C@@H](C)C(=O)N[C@H]1CCC(=O)NCCCC[C@@H](C(=O)N[C@@H](CC(C)C)C(=O)N[C@@H](CC(C)C)C(=O)N[C@@H](CC(C)C)C(=O)N[C@@H](CC(=O)O)C(=O)N[C@@](C)(CC(C)C)C(=O)N[C@H](C(N)=O)[C@@H](C)CC)NC(=O)[C@H](CC(N)=O)NC(=O)[C@H](CC(N)=O)NC1=O)[C@@H](C)CC)[C@@H](C)CC` [Example 2 cyclic peptide, (cyclo 31–34)[Ac-D-Phe^11, His^12, CML^13,39, Nle^17, Glu^31, Lys^34]-sauvagine(8–40)]: on CRFR1 [1], the IC50 is > 500 nM and the Ki was ~543 nM. Also, the “antagonism of CRF activity with respect to CRFR1 (cAMP accumulation)” value (“antagonism … to CRFR1 (cAMP accumulation)” below) at CRFR1 [2] is recorded as “little or no effect”. For the same compound, on human CRFR2b, the IC50 stood at 1.3 nM. Further, the “antagonism of CRF activity with respect to CRFR2 (cAMP accumulation)” value (shortened to “antagonism … to CRFR2 (cAMP accumulation)”) at CRFR2 was “effectively antagonize CRF activity”.
Take `CCCC[C@H](NC(=O)[C@H](CCC(=O)O)NC(=O)[C@H](CC(C)C)NC(=O)[C@@H](NC(=O)[C@H](CCC(=O)O)NC(=O)[C@H](CCCNC(=N)N)NC(=O)[C@H](CC(C)C)NC(=O)[C@](C)(CC(C)C)NC(=O)[C@H](Cc1c[nH]cn1)NC(=O)[C@H](N)Cc1ccccc1)C(C)C)C(=O)N[C@@H](C)C(=O)N[C@@H](CCCNC(=N)N)C(=O)N[C@@H](C)C(=O)N[C@@H](CCC(=O)O)C(=O)N[C@@H](CCC(N)=O)C(=O)N[C@@H](CC(C)C)C(=O)N[C@@H](C)C(=O)N[C@@H](CCC(N)=O)C(=O)N[C@@H](CCC(N)=O)C(=O)N[C@@H](C)C(=O)N[C@H]1CCC(=O)NCCCC[C@@H](C(=O)N[C@@H](CCCCN)C(=O)N[C@@H](CC(C)C)C(=O)N[C@@H](CCCC)C(=O)N[C@@H](CCC(=O)O)C(=O)N[C@@](C)(CC(C)C)C(=O)N[C@H](C(N)=O)[C@@H](C)CC)NC(=O)[C@H](CC(N)=O)NC(=O)[C@H](CO)NC1=O` [Example 9B, (cyclo 32–35) [D-Phe^12, CML^14,40, Nle^21,38, Glu^32, Lys^35]-r/hCRF(12–41)] (H-[dF]H[αMeL]LREVLE[Nle]ARAEQLAQQAESNKKL[Nle]E[αMeL]I-NH2; lactam 21-24): the IC50 on CRFR1 [1] (read-out: affinity of cloned hCRFR1 for the peptide (competitive displacement of bound radioligand)) is > 100 nM.
Regarding “(cyclo 31–34) [Ac-Asp^8,D-Phe^11,Lys^34]-Ucn(8–40) [Example 10C]”, the “antagonism … to CRFR1 (cAMP accumulation)” value at CRFR1 [2] was “little or no effect”. At human CRFR2b, the “binding selectivity, CRFR2 versus CRFR1” value is listed as “very good selectivity”. For the same compound, the “antagonism … to CRFR2 (cAMP accumulation)” value at CRFR2 is “effectively antagonize CRF activity”. Further, at CRFR2 (in words, compared with the parent Ucn analog), the “selectivity as Ucn antagonist” value was “does not significantly alter its selectivity”.
With “(cyclo 31–34) [D-Tyr^11, Lys^34], -Ucn(11–40) [Example 10]”, the “antagonism … to CRFR1 (cAMP accumulation)” value on CRFR1 [2] is listed as “little or no effect”. Also, the “binding selectivity, CRFR2 versus CRFR1” value on human CRFR2b is on record as “very good selectivity”. In addition, the “antagonism … to CRFR2 (cAMP accumulation)” value at CRFR2 is “effectively antagonize CRF activity”.
“(cyclo 31–34)[Ac-D-2Nal^11, His^12, CML^13,39, Nle^17, Glu^31, Lys^34]-sauvagine(11–40) [Example 6]”: on CRFR2, the “antagonism … to CRFR2 (cAMP accumulation)” value is “effectively antagonize CRF activity”.
As to “(cyclo 31–34)[Ac-D-3 Pal^11, His^12, CML^13,39, Nle^17, Glu^31, Lys^34]-sauvagine(11–40) [Example 7]”, at CRFR2, the “antagonism … to CRFR2 (cAMP accumulation)” value is “effectively antagonize CRF activity”.
On the same count and under the same terms, with “(cyclo 31–34)[Ac-D-Cpa^11, His^12, CML^13,39, Nle^17, Glu^31, Lys^34]-sauvagine(11–40) [Example 5]” the entry was “effectively antagonize CRF activity”; with “(cyclo 31–34)[Ac-D-Leu^11, His^12, CML^13,39, Nle^17, Glu^31 Lys^34]-sauvagine(8–40) [Example 3]”, “effectively antagonize CRF activity”; with “(cyclo 31–34)[Ac-D-Phe^11, His^12, CML^13,39, Nle^17, Glu^31, Orn^34]-sauvagine(11–40) [Example 8]”, “effectively antagonize CRF activity”.
For “(cyclo 31–34)[Ac-D-Tyr^11, His^12, CML^13,39, Nle^17, Glu^31, Lys^34]-sauvagine(11–40) [Example 4]”, on CRFR2, the “antagonism … to CRFR2 (cAMP accumulation)” value is on record as “effectively antagonize CRF activity”.
For the compound “(cyclo 31–34)[D-Phe^11, Lys^34]-Ucn(11–40) [Example 10A]”, on CRFR1 [2], the “antagonism … to CRFR1 (cAMP accumulation)” value is listed as “little or no effect”. Also, the “binding selectivity, CRFR2 versus CRFR1” value at human CRFR2b is “very good selectivity”. The “antagonism … to CRFR2 (cAMP accumulation)” value at CRFR2 is “effectively antagonize CRF activity”.
Consider “[Ac-Asp^8,D-Phe^11,CML^13,39, Lys^34]-Ucn(8–40) [Example 10D]”, for which the “antagonism … to CRFR1 (cAMP accumulation)” value on CRFR1 [2] is “little or no effect”. Also, the “binding selectivity, CRFR2 versus CRFR1” value at human CRFR2b is given as “very good selectivity”. The “antagonism … to CRFR2 (cAMP accumulation)” value on CRFR2 is recorded as “effectively antagonize CRF activity”.
Turning to “[D-Phe^11, Gln^31,Lys(Ac)^34]-Ucn(11–40) [Example 10B]”, on CRFR1 [2], the “antagonism … to CRFR1 (cAMP accumulation)” value is given as “little or no effect”. Moreover, on human CRFR2b, the “binding selectivity, CRFR2 versus CRFR1” value is listed as “very good selectivity”. In addition, the “antagonism … to CRFR2 (cAMP accumulation)” value at CRFR2 was “effectively antagonize CRF activity”.

As usually defined, the Ki is the dissociation constant of the complex between target and ligand, obtained from inhibition or displacement.
